Data from US7829575B2, “Methods for treating androgen receptor related disorders” (University of Cincinnati, priority 2006, dated 2010).
Where two headings read alike, the source gives them in different places.

What was measured:
AR-AF1 (LBD deleted) = test: PSA promoter luciferase reporter in PC-3 cells co-transfected with AR-AF1; conditions: 20 μM, 24 hr
human PSA gene promoter = test: PSA promoter luciferase reporter (pGL3-PSA-luc) in LNCaP cells; conditions: 24 hr
LNCaP-Nilut-R cells = test: Growth of Nilut-refractory LNCaP cells, MTT; assay type: cell-based; conditions: 10 μM, 4 days, MTT (FIG. 2F)
From the text: (§1) Viable cells are stained with MTT (3-(4,5-dimethylthiazol-2-yl)-2,5-diphenyltetrazolium bromide). *, **, and *** designate p<0.05, <0.01, and 0.001, respectively, compared with controls.

wildtype AR = molecular target: T1, wildtype AR (Homo sapiens, UniProt P10275); test: PSA promoter luciferase reporter in PC-3 cells co-transfected with AR; conditions: PC-3 cells transfected with wildtype AR, 20 μM, 1 nM DHT, 24 hr
T1 sequence (P10275 1-920): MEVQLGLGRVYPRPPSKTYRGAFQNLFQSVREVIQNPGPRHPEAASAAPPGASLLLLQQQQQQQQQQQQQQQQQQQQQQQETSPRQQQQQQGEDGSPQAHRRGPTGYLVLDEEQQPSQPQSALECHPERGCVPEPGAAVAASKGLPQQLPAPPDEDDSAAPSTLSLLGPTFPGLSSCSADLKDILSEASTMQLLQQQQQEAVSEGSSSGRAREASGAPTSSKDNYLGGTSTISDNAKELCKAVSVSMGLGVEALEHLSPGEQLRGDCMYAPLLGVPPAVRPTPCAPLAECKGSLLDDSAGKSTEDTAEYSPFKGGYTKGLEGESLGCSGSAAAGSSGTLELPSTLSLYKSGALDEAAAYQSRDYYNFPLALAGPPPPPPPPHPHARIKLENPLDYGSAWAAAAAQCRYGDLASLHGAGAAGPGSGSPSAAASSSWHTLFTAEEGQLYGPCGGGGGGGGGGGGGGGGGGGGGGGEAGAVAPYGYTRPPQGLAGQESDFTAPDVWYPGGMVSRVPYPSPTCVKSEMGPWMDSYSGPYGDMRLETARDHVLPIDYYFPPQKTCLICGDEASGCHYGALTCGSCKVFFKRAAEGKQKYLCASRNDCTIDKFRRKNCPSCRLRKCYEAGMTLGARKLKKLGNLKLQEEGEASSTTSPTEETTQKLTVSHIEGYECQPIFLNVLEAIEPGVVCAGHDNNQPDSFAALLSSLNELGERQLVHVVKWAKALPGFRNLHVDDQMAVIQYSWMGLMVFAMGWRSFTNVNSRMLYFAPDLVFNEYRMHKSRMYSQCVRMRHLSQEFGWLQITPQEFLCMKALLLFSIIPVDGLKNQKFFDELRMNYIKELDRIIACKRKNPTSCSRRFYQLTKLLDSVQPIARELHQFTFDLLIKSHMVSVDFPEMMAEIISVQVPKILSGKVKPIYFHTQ

[1] = system: LAPC-4 cells (wildtype AR); test: Cellular PSA and AR protein, western blotting; assay type: cell-based
[2] = system: LNCaP cells (mutant AR, H877A); test: LNCaP cell growth, MTT staining; assay type: cell-based; conditions: for inhibition at 10 µM: Homo sapiens, LNCaP, 96 h
From the text: as §1

LNCaP cells [3] = test: PSA and AR mRNA expression, RT-PCR; assay type: cell-based; conditions: 6 hr
LNCaP cells [4] = test: Cell cycle distribution and apoptosis, flow cytometry (propidium staining) and western blotting; assay type: cell-based
Method: To further appreciate the effects of DL3 on cell growth, cell cycle distribution is determined using the flow cytometry analysis. After incubation of LNCaP cells for 24 hr in SMEM, the majority of cells are in the G1 phase of cell cycle. […] The cell cycle distribution is examined by the propidium staining method. […] Thus, DL3 induces GI arrest of prostate cancer cells in short term culture.

LNCaP cells [5] = test: Cellular PSA and AR protein, western blotting; assay type: cell-based; conditions: 24 hr
Method: In FIG. 6, cellular PSA and AR are analyzed by western blotting androgen-starved LNCaP cells.

LNCaP cells [6] = test: AR protein stability and hsp70/hsp90 expression, western blotting; assay type: cell-based
Method: Cell lysates are prepared and analyzed by western blotting. […] To further determine how DL3 downregulates AR, LNCaP cells are incubated for 24 hr with DL3 in the absence or presence of proteasome inhibitor MG132.
Hsp70 and hsp90 are key molecular chaperones in cells. Along with several co-chaperones, hsp70 and hsp90 play critical roles in folding and assembling AR to a high-affinity ligand binding conformation and in regulating AR activation that occurs following hormone binding. Therefore, the possibility of whether the downregulation of AR protein by DL3 is mediated by its effects on hsp70 or hsp90 expression is investigated.
Thus, the effects of DL3 on hsp70 expression are further investigated in several other prostate cancer cell lines, including LAPC-4 (wildtype AR), 22Rv1 (mutant AR), and AR-negative cell lines PC-3, DU-145, PWE1-NB14 (ATCC), and PWE1-NB26 (ATCC). […] In FIG. 10, LAPC-4 (in SMEM) and all other (in CMEM) cells are treated for 24 hr and analyzed by western blotting. LNCaP cells are transfected for 24 hr with hsp70 or its control vector, then treated for 24 hr.

LNCaP cells [7] = test: PSA gene transcription, real-time PCR-based nuclear run-on; conditions: 20 μM, 16 hr
LNCaP-Flut-R cells = test: Growth of Flut-refractory LNCaP cells, MTT; assay type: cell-based; conditions: 10 μM, 4 days, MTT (FIG. 2F)
From the text: as §1

[8] = 20 μM DL3, time course to 48 hr (FIG. 9A)

CC(C)(C)c1ccc(OCCSc2nc(=O)cc(N)[nH]2)cc1 [DL3, 6-amino-2-(2-4-tert-butyl-phenoxy)-ethylsulfanyl-1H-pyrimidin-4-one]
activation of PSA promoter activity by AR-AF1 (AR-AF1 (LBD deleted)): does not inhibit | basal PSA promoter activity (human PSA gene promoter; 20 μM alone): does not significantly alter | PSA promoter activity induced by DHT (human PSA gene promoter; 20 μM, 1 nM DHT): attenuates | growth of LNCaP-Nilut-R cells (LNCaP-Nilut-R cells): significantly inhibits growth | DHT-induced activation of PSA promoter activity (wildtype AR): significantly inhibits | AR protein expression ([1]; 20 μM, 24 hr): similarly reduced | DHT-induced PSA protein expression ([1]; SMEM, 1 nM DHT, 20 μM DL3, 24 hr): inhibitory effects | concentration at which inhibition of DHT-stimulated growth reaches a plateau ([2]; 1 nM DHT, 4 days): greater than 10 μM | effect on DHT-stimulated growth of LNCaP cells ([2]; 1 nM DHT, SMEM, 4 days, dose response): inhibits DHT-stimulated growth | growth of parental LNCaP cells ([2]; 10 μM, 4 days, MTT (FIG. 2F)): significantly inhibits growth | additive effect on growth of DL3 with Flut, Nilut or Bical ([2]; CMEM, 4 days, 5 μM DL3 and 10 μM of Flut, Nilut, or Bical): No significant additive effect | inhibition at 10 µM ([2]; read-out: inhibition of growth of LNCaP cells in the absence of DHT): 27% | inhibition at 10 µM ([2]; read-out: inhibition of growth of LNCaP cells in the presence of DHT): 82% | growth of LNCaP cells in the absence of DHT ([2]; no DHT, dose response): inhibits growth | AR mRNA expression (LNCaP cells [3]): not significantly altered | increase of the portion of cells in G1 phase of cell cycle (LNCaP cells [4]; 24 hr, regardless of presence or absence of DHT): 15% | induction of apoptosis (LNCaP cells [4]; 24 hr, DL3 at 20 μM): does not induce apoptosis | survivin expression and caspase 3 cleavage (western blotting) (LNCaP cells [4]; data not shown): alter neither survivin expression nor caspase 3 cleavage | expression of AR protein (LNCaP cells [5]; 5 and 10 μM): not significantly altered | expression of AR protein (LNCaP cells [5]; 20 and 40 μM): reduced | DHT-induced PSA protein expression (LNCaP cells [5]; SMEM, Flut, Nilut, Bical at 20 μM): dose-dependently reduced | time after exposure at which AR downregulation can be observed (LNCaP cells [6]; 20 μM): 8 h | time after treatment at which reduction of hsp70 starts (LNCaP cells [6]; 20 μM DL3): 4 h | expression of hsp70 (LNCaP cells [6]; [8]): reduced | expression of hsp90 (LNCaP cells [6]; [8]): not | partial reversal by DHT of the CHX-diminished AR expression (LNCaP cells [6]; 24 hr with DHT, DL3 and CHX (FIG. 9B, lane 7 vs. lane 6)): also blocked | AR downregulation by DL3 under overexpression of hsp70 (LNCaP cells [6]; LNCaP cells transfected 24 hr with hsp70, then treated 24 hr): not able to protect AR downregulation | elevation of AR and PSA expression by DHT (LNCaP cells [6]; SMEM, 24 hr (FIG. 9B, lane 4 vs. lane 3)): blocked | AR protein levels (LNCaP cells [6]; dose-dependent): downregulates AR protein levels | DHT-induced PSA mRNA transcription activity of nuclear extracts (LNCaP cells [7]; 1 nM DHT): significantly reduced | basal PSA mRNA transcription activity of nuclear extracts (LNCaP cells [7]): significantly reduced | growth of LNCaP-Flut-R cells (LNCaP-Flut-R cells): significantly inhibits growth
